The results in this text go back to patent US9011853B2, “B7-H4 fusion proteins and methods of use thereof” (Amplimmune, Inc., priority 2009, dated 2015).

The subject of series [1] is DBA/1 mice. Briefly: Therapeutic CIA study AA#80 (male mice), disease score. In kind it is in vivo, mouse. As to conditions: for clinical score: individual mice sampled for serum analysis; for AA#80 CIA disease scores: individual mice (Tag #). Here is the method:
(§1) DBA/1 mice (10 per group) aged 7-9 weeks were used for the CIA model. Mice from several vendors (Jackson Laboratories, Harlan Laboratories, and Taconic Farms) were tested and it was determined that Taconic mice are most appropriate for the CIA studies. Taconic mice develop more consistent and severe disease symptoms and show continued disease progression, while mice from the other vendors often show stable, less severe disease, even in the absence of treatment. female (F) mice in AA#79 and male (M) mice in AA#80, were tested to determine which gender to use in future experiments.
(§2) On the day before the study is initiated, the hair on the right flank of each mouse was removed using an electric clipper. A metal identification tag was placed on the right ear of each mouse. On Day 0, mice were immunized with 100 μL of chicken collagen type II/Complete Freund's Adjuvant (CII/CFA) emulsion in the right flank. On Day 20, the hair on the left flank of each mouse was removed using an electric clipper, and on Day 21, mice were immunized with 100 μL of chicken collagen type II/Incomplete Freund's Adjuvant (CII/IFA) emulsion in the left flank. Pre-filled syringes of CII/CFA and CII/IFA emulsion purchased from Hooke Laboratories were used to ensure consistent dosing with and potency of the immunogen.
(§3) Early arthritis symptoms, such as erythema and mild swelling, usually appear on Day 21, and on Day 28, more severe symptoms such as swelling in many digits and inflammation extending to the tarsal joint are typically present. Each limb is evaluated for severity of arthritis symptoms three times a week using a widely accepted arthritis severity score system, shown in Table 2. The scores from each of the 4 limbs are summed to yield the disease score of each mouse. […]
(§4) Treatment was initiated when the average disease score for the study animals was greater than four. This corresponded to Day 29 in AA#79 and Day 24 in […]. By waiting until animals are symptomatic, it was ensured that the model is performed in a therapeutic rather than prophylactic mode.
(§5) B7-H4-Ig, RPA110010, and murine B7-H4-Ig proteins were administered by intraperitoneal (IP) injection 3 times a week for a total of 8 doses. RPA110010 is an extracellular domain variant of B7-H4-Ig, SEQ ID NO:126. Control murine and human IgG proteins were given once a week for a total of 3 doses. […] All proteins were diluted to the desired concentration (500 μg in 500 μL, or 1 mg/mL) with sterile PBS immediately before injection. Vehicle control mice receive Amplimmune formulation buffer diluted 1:10 in PBS, with an injection volume of 500 μL.

A short description of series [2]: Clearance from circulation. It counts as in vivo. As to conditions: compared with control IgG.
In series [3] the test system is DBA/1 mice. Briefly: Therapeutic CIA study AA#79 (female mice), disease score. In kind it is in vivo, mouse. On the procedure: as §1, §2, §3, §4, §5
Series [4] has as its system naïve CD4^+CD62L^+ T cells. Briefly: In vitro Th2 polarization, proliferation. It counts as cell-based, mouse. To be noted: Th2 conditions: IL-2, IL-4, anti-IL12 and anti-IFN-γ (FIG. 23). An excerpt: B7-H4-Ig has no impact on Th2 cells using the same target, naïve CD4^+CD62L^+ T cells, under Th2 in vitro polarization conditions: IL-2, IL-4, anti-IL12 and anti-IFN-γ (FIG. 23).

The subject of series [5] is CD4^+CD62L^+ naïve T cells. Briefly: In vitro Th1 polarization: proliferation and cytokine production. It counts as cell-based, mouse. On the procedure: Mouse splenocytes were first removed isolated from DO11.10 mice, which express an MHC class II restricted T cell receptor specific for OVA323-339. Mouse CD4^+ T cells were purified using a Miltenyi CD4^+ T cell negative isolation kit (Cat#130-090-860). […] CD4^+CD62L^+ naïve T cells with or without CD25^+ T cells were cultured in serum free HL-1 media in the presence of rIL-2 (1 ng/mL), rIL-12 (4 ng/mL) and anti-IL-4 (1 μg/mL). Activity of murine B7-H4-Ig was tested in a number of formats (soluble and insoluble presentation of B7-H4-Ig). Murine B7-H4-Ig was also assessed for activity on T cells activated non-specifically or with antigen-specific stimulation. To provide murine B7-H4-Ig in an immobilized format, 96-well flat bottom plates were first coated with murine B7-H4-Ig, 100 μl per well at 1 μg/mL, and incubated at 37° C. for 2 hours. […] For non-specific antigen activation, Mouse CD3/CD28 T Cell Expander beads (Dynabeads®; Invitrogen, Cat#11452D) were added into each well, at a 1:1 cell to bead ratio. For OVA specific activation, splenocytes were first isolated from Balb/C mice as antigen presenting cells (APC) followed by irradiation at 3000 rads for 45 minutes and then added into each well, at a 1:1, APC to responder cell, ratio. OVA323-339 peptide was added into the culture at 20 μg/mL. [^3H]-Thymidine (1 μCi/well) was added into each well 24 hr post co-incubation. Proliferation was determined by uptake of [^3H]-thymidine detected at 48 hr post [^3H]-thymidine addition using a Topcount Microplate Scintillation Counter (Packard Instruments, Meridan, Conn.). Results are expressed as the mean of triplicate cultures±SEM. Supernatants were collected from plates without [^3H]-Thymidine at 72 hr for cytokine analysis. Cytokine measurements were performed using the Mouse Cytokine 10-Plex system (Millipore) and Luminex Liquidchip analyzer (Qiagen, Valencia, Calif.) or ELISA. The human and mouse B7-H4 proteins are 95% homologous. Human B7-H4-Ig was tested for cross-reactivity with murine T cells. Naïve CD4^+ T cells were isolated as described above. Upon purification, murine naïve CD4^+ T cells were polarized in the presence of IL-2, IL-12 and anti-IL4 for Th1 cell-promoting conditions, or TGF-β, IL-6, IL-23, anti-IL4, anti-IFNγ and anti-IL-2 for Th17 cell-promoting conditions, as described in Example 5 for murine B7-H4-Ig in vitro bioactivity. Human B7-H4-Ig was directly added into the culture at 0, 0.1, 1 or 10 μg/mL. Human Control IgG1 (Synagis®) was added into the culture to bring the final protein concentration to 10 μg/mL. […] After depletion of CD4^+CD25^+ T cells, CD25^+/P3^+ cells were decreased from approximately 5% to 1%.

“And” between values parts separate entries of the source, which are not always exact repeats. Identical values can stand only once. “Also recorded” adds a separate entry of the source.

Turning to “B7-H4-Ig: B7-H4 extracellular domain fused to Ig Fc; bare label is the human protein in Example 3, murine protein in Examples 1, 2, 5, 7-11”, the “disease scores, AA#80” value with DBA/1 mice [1] (male DBA/1 mice, 20 mg/kg IP 3× weekly, 8 doses from Day 24, vs control groups (FIG. 8), 20 mg/kg) was “lower disease scores than mice in the control groups; also recorded: prolonged period of stable disease scores”. Further, the clearance from circulation result in series [2] is “cleared from circulation more rapidly than control IgG”. For the same substance, the “disease scores, AA#79” value in the series on DBA/1 mice [3] (female DBA/1 mice, 20 mg/kg IP 3× weekly, 8 doses from Day 29, vs control groups (FIG. 7), 20 mg/kg) is on record as “lower disease scores than mice in the control groups; also recorded: prolonged period of stable disease scores”. In addition, the “impact on Th2 cells (proliferation)” value in series [4] was “no impact”. In addition, the “decrease in IFN-γ production” value in series [5] (Th1 conditions, APC/OVA, CD25+ T cells depleted (open triangles), various doses (FIG. 29A)) is listed as “dose dependent”. In addition, in series [5] (Th1 conditions, APC/OVA, in the presence of CD4+CD25+ Treg cells (solid triangle) (FIG. 29A)), the “inhibition of IFN-γ production” value is on record as “more profound”. Further, the IL-10 production entry in series [5] (Th1 conditions, APC/OVA, solid triangles (FIG. 29B)) is listed as “increased IL-10 production in a dose dependent manner”.
As for “Human B7-H4-Ig: human B7-H4 extracellular domain fused to hinge, CH2 and CH3 regions of human immunoglobulin Cγ1 chain; representative SEQ ID NOs:114-137”, the clinical score was 2 (2×) and 3 in the series with DBA/1 mice [1] (Day 27); 5 and 4 in the series on DBA/1 mice [1] (Day 34); 9 (2×) and 6 in the series on DBA/1 mice [1] (Day 41). In addition, the “AA#80 CIA disease scores” value with DBA/1 mice [1] (Study Day 20) was 4 (2×) and 2 (3×) and 3 (2×) and 5 (2×); in the series with DBA/1 mice [1] (Study Day 22) it was 4 (4×) and 3 and 5 (4×); in the series with DBA/1 mice [1] (Study Day 24) it was 4 (3×) and 5 (5×) and 2; in the series with DBA/1 mice [1] (Study Day 27), 3 (3×) and 2 (5×) and 4; in the series with DBA/1 mice [1] (Study Day 29), 2 (5×) and 3 and 1 and 5 (2×); with DBA/1 mice [1] (Study Day 31), 2 (4×) and 3 and 1 and 4 (2×) and 5. Further, the “AA#80 CIA disease scores” value was 2 (2×) and 5 (3×) and 1 and 4 (2×) and 6 in the series on DBA/1 mice [1] (Study Day 34); 3 and 7 (3×) and 4 (3×) and 5 and 6 with DBA/1 mice [1] (Study Day 36); 3 (4×) and 7 and 9 and 5 and 6 and 10 and 12 in the series on DBA/1 mice [1] (Study Day 38); 4 and 9 (5×) and 6 and 10 and 13 with DBA/1 mice [1] (Study Day 41); 3 and 11 (3×) and 8 and 9 and 12 and 14 and 4 in the series with DBA/1 mice [1] (Study Day 44). The CIA disease score in the series with DBA/1 mice [3] (AA#79, Study Day 12, individual mouse (Tag#)) was 1 (2×) and 0 (4×); in the series with DBA/1 mice [3] (AA#79, Study Day 18, individual mouse (Tag#)), 2 (2×) and 1 (3×) and 0; in the series with DBA/1 mice [3] (AA#79, Study Day 22, individual mouse (Tag#)), 2 (5×) and 1; in the series on DBA/1 mice [3] (AA#79, Study Day 25, individual mouse (Tag#)), 2 (3×) and 3 (2×) and 4; in the series with DBA/1 mice [3] (AA#79, Study Day 27, individual mouse (Tag#)) it was 3 (2×) and 5 and 4 (3×); with DBA/1 mice [3] (AA#79, Study Day 29, individual mouse (Tag#)), 6 and 5 (2×) and 4 (2×) and 7. For the same substance, the CIA disease score in the series on DBA/1 mice [3] (AA#79, Study Day 32, individual mouse (Tag#)) is 5 (2×) and 4 (2×) and 2; with DBA/1 mice [3] (AA#79, Study Day 34, individual mouse (Tag#)), 4 (2×) and 2 and 5 (2×); in the series on DBA/1 mice [3] (AA#79, Study Day 36, individual mouse (Tag#)) it was 4 and 5 and 1 and 6 and 3 and 12; in the series on DBA/1 mice [3] (AA#79, Study Day 39, individual mouse (Tag#)), 5 and 12 and 6 and 9 and 3 and 11; with DBA/1 mice [3] (AA#79, Study Day 41, individual mouse (Tag#)), 5 (2×) and 12 and 7 and 10 (2×); in the series on DBA/1 mice [3] (AA#79, Study Day 43, individual mouse (Tag#)), 3 (2×) and 10 (2×) and 6 and 9. Further, the CIA disease score in the series with DBA/1 mice [3] (AA#79, Study Day 46, individual mouse (Tag#)) was 4 and 9 and 10 (2×) and 11 and 3; with DBA/1 mice [3] (AA#79, Study Day 48, individual mouse (Tag#)), 5 and 10 (3×) and 6 and 11; with DBA/1 mice [3] (AA#79, Study Day 50, individual mouse (Tag#)), 6 (2×) and 9 (2×) and 10 and 12; in the series on DBA/1 mice [3] (AA#79, Study Day 54, individual mouse (Tag#)), 3 and 10 (2×) and 13 (2×) and 5; in the series with DBA/1 mice [3] (AA#79, Study Day 57, individual mouse (Tag#)), 5 (2×) and 11 and 10 (2×) and 12. Also, the “IFN-γ production in Th1 cells” value in series [5] (0, 0.1, 1 or 10 μg/mL in solution, anti-CD3/CD28 beads (FIG. 27)) is on record as “reduced IFN-γ production”. Moreover, in series [5] (0, 0.1, 1 or 10 μg/mL in solution, anti-CD3/CD28 beads, dose dependent (FIG. 26)), the “murine Th1 proliferation” value is “blocked murine Th1/Th17 proliferation”.
